Results published in patent US20230085307A1, “PYRIDAZINONE COMPOUND AND HERBICIDE” (NISSAN CHEMICAL CORPORATION, priority 2019, published 2023).

Tests used:
green foxtail [1] = test: Test Example 4: herbicidal effect by soil treatment (Table 19, symbol G); type: in vivo, green foxtail (Setaria viridis); conditions: amount of applied herbicide 320 g/ha
Summary of the method: (§1)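 Herbicidal effect was rated 3 weeks after treatment, using the scoring criteria of an earlier test. The compound, formulated as an emulsion and diluted in water to a set herbicide amount, had been sprayed uniformly on soil over freshly sown seeds. Growth took place in a greenhouse at 25° C. to 30° C.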

persian speedwell [2] = test: Test Example 4: herbicidal effect by soil treatment (Table 19, symbol R); type: in vivo, Persian speedwell (Veronica persica); conditions: amount of applied herbicide 320 g/ha
Summary of the method: as §1

Italian ryegrass [3] = test: Test Example 4: herbicidal effect by soil treatment (Table 19, symbol K); type: in vivo, Italian ryegrass (Lolium multiflorum); conditions: amount of applied herbicide 320 g/ha
Summary of the method: as §1

redroot pigweed = test: Test Example 4: herbicidal effect by soil treatment (Table 19, symbol N); type: in vivo, redroot pigweed (Amaranthus retroflexus); conditions: amount of applied herbicide 320 g/ha
Summary of the method: as §1

Japanese bulrush = test: Test Example 1: herbicidal activity, application before weed generation under submerged conditions (Table 16, symbol B); type: in vivo, Japanese bulrush (Schoenoplectus juncoides); conditions: for Herbicidal effect on B: Japanese bulrush (grade 0-5): 320 g/ha applied herbicide
Summary of the method: (§2)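 Emulsion formulation, water-diluted to set dose, was put onto the flooded surface (4 cm depth, alluvial soil) the same day weeds were sown and 2.5-leaf rice transplanted. After 3 weeks at 25-30 °C under glass, each species was rated 0 (≤5% kill) to 5 (≥90% kill).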

lambsquarters [4] = test: Test Example 4: herbicidal effect by soil treatment (Table 19, symbol O); type: in vivo, lambsquarters (Chenopodium album); conditions: amount of applied herbicide 320 g/ha
Summary of the method: as §1

chickweed = test: Test Example 4: herbicidal effect by soil treatment (Table 19, symbol P); type: in vivo, common chickweed (Stellaria media); conditions: amount of applied herbicide 320 g/ha
Summary of the method: as §1

late watergrass = test: Test Example 1: herbicidal activity, application before weed generation under submerged conditions (Table 16, symbol A); type: in vivo, late watergrass (Echinochloa oryzicola); conditions: for Herbicidal effect on A: late watergrass (grade 0-5): 320 g/ha applied herbicide
Summary of the method: as §2

windgrass = test: Test Example 4: herbicidal effect by soil treatment (Table 19, symbol L); type: in vivo, windgrass (Apera spica-venti); conditions: amount of applied herbicide 320 g/ha
Summary of the method: as §1

blackgrass [5] = test: Test Example 4: herbicidal effect by soil treatment (Table 19, symbol J); type: in vivo, blackgrass (Alopecurus myosuroides); conditions: amount of applied herbicide 320 g/ha
Summary of the method: as §1

southern crabgrass [6] = test: Test Example 4: herbicidal effect by soil treatment (Table 19, symbol F); type: in vivo, southern crabgrass (Digitaria ciliaris); conditions: amount of applied herbicide 320 g/ha
Summary of the method: as §1

wild oat [7] = test: Test Example 4: herbicidal effect by soil treatment (Table 19, symbol I); type: in vivo, wild oat (Avena fatua); conditions: amount of applied herbicide 320 g/ha
Summary of the method: as §1

barnyard grass [8] = test: Test Example 4: herbicidal effect by soil treatment (Table 19, symbol H); type: in vivo, barnyard grass (Echinochloa crus-galli); conditions: amount of applied herbicide 320 g/ha
Summary of the method: as §1

oval-leafed pondweed = test: Test Example 1: herbicidal activity, application before weed generation under submerged conditions (Table 16, symbol C); type: in vivo, oval-leafed pondweed (Monochoria vaginalis); conditions: for Herbicidal effect on C: oval-leafed pondweed (grade 0-5): 320 g/ha applied herbicide
Summary of the method: as §2

barnyard grass [9] = test: Test Example 3: herbicidal effect by foliage application, Wagner pot (Table 18, symbol H); type: in vivo, barnyard grass (Echinochloa crus-galli); conditions: for herbicidal effect on H: barnyard grass: amount of applied herbicide 320 g/ha
Summary of the method: (§3)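 Plants were sown in alluvial soil held under 0.1–0.5 cm standing water and grown 14 days in a greenhouse at 25–30 °C. An emulsifiable formulation, water-diluted to the set dose, was then sprayed onto the foliage, and effects were scored three weeks later using previously defined criteria.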

rice flat sedge = test: Test Example 3: herbicidal effect by foliage application, Wagner pot (Table 18, symbol E); type: in vivo, rice flat sedge (Cyperus iria); conditions: for herbicidal effect on E: rice flat sedge: amount of applied herbicide 320 g/ha
Summary of the method: as §3

velvetleaf [10] = test: Test Example 4: herbicidal effect by soil treatment (Table 19, symbol M); type: in vivo, velvetleaf (Abutilon theophrasti); conditions: amount of applied herbicide 320 g/ha
Summary of the method: as §1

Chinese sprangletop = test: Test Example 3: herbicidal effect by foliage application, Wagner pot (Table 18, symbol D); type: in vivo, chinese sprangletop (Leptochloa chinensis); conditions: for herbicidal effect on D: Chinese sprangletop: amount of applied herbicide 320 g/ha
Summary of the method: as §3

wild oat [11] = test: Test Example 5: herbicidal effect by foliage application, plastic box (Table 20, symbol I); type: in vivo, wild oat (Avena fatua); conditions: foliage application, 320 g/ha, three weeks after application
Summary of the method: (§4)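 Foliar spray test: emulsion formulation diluted in water to a set application rate, sprayed onto 14-day-old plants raised in diluvial soil at 25° C to 30° C under glass. Both herbicidal effect and crop effect rated visually three weeks later.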

barnyard grass [12] = test: Test Example 5: herbicidal effect by foliage application, plastic box (Table 20, symbol H); type: in vivo, barnyard grass (Echinochloa crus-galli); conditions: foliage application, 320 g/ha, three weeks after application
Summary of the method: as §4

southern crabgrass [13] = test: Test Example 5: herbicidal effect by foliage application, plastic box (Table 20, symbol F); type: in vivo, southern crabgrass (Digitaria ciliaris); conditions: foliage application, 320 g/ha, three weeks after application
Summary of the method: as §4

blackgrass [14] = test: Test Example 5: herbicidal effect by foliage application, plastic box (Table 20, symbol J); type: in vivo, blackgrass (Alopecurus myosuroides); conditions: foliage application, 320 g/ha, three weeks after application
Summary of the method: as §4

velvetleaf [15] = test: Test Example 5: herbicidal effect by foliage application, plastic box (Table 20, symbol M); type: in vivo, velvetleaf (Abutilon theophrasti); conditions: foliage application, 320 g/ha, three weeks after application
Summary of the method: as §4

Italian ryegrass [16] = test: Test Example 5: herbicidal effect by foliage application, plastic box (Table 20, symbol K); type: in vivo, Italian ryegrass (Lolium multiflorum); conditions: foliage application, 320 g/ha, three weeks after application
Summary of the method: as §4

lambsquarters [17] = test: Test Example 5: herbicidal effect by foliage application, plastic box (Table 20, symbol O); type: in vivo, lambsquarters (Chenopodium album); conditions: foliage application, 320 g/ha, three weeks after application
Summary of the method: as §4

persian speedwell [18] = test: Test Example 5: herbicidal effect by foliage application, plastic box (Table 20, symbol R); type: in vivo, Persian speedwell (Veronica persica); conditions: foliage application, 320 g/ha, three weeks after application
Summary of the method: as §4

green foxtail [19] = test: Test Example 5: herbicidal effect by foliage application, plastic box (Table 20, symbol G); type: in vivo, green foxtail (Setaria viridis); conditions: foliage application, 320 g/ha, three weeks after application
Summary of the method: as §4

[20] = amount of applied herbicide 320 g/ha

Cc1nn(C)c(=O)c(-c2c(-c3ccc(OC(F)F)cc3)sc3ccc(Cl)cc23)c1O [2-374]
herbicidal effect, G: green foxtail (green foxtail [1]): 1 (Herbicidal rate of 5% or more and less than 20%) | herbicidal effect, R: persian speedwell (persian speedwell [2]): 5 (Herbicidal rate of 90% or more (almost completely withered)) | herbicidal effect, K: Italian ryegrass (Italian ryegrass [3]): 4 (Herbicidal rate of 70% or more and less than 90%) | herbicidal effect, N: redroot pigweed (redroot pigweed): 4 (Herbicidal rate of 70% or more and less than 90%) | Herbicidal effect on B: Japanese bulrush (grade 0-5) (Japanese bulrush): 0 (Herbicidal rate of 5% or less (almost no effect)) | herbicidal effect, O: lambsquarters (lambsquarters [4]): 5 (Herbicidal rate of 90% or more (almost completely withered)) | herbicidal effect, P: chickweed (chickweed): 3 (Herbicidal rate of 40% or more and less than 70%) | Herbicidal effect on A: late watergrass (grade 0-5) (late watergrass): 3 (Herbicidal rate of 40% or more and less than 70%) | herbicidal effect, L: windgrass (windgrass): 5 (Herbicidal rate of 90% or more (almost completely withered)) | herbicidal effect, J: blackgrass (blackgrass [5]): 3 (Herbicidal rate of 40% or more and less than 70%) | herbicidal effect, F: southern crabgrass (southern crabgrass [6]): 4 (Herbicidal rate of 70% or more and less than 90%) | herbicidal effect, I: wild oat (wild oat [7]): 0 (Herbicidal rate of 5% or less (almost no effect)) | herbicidal effect, H: barnyard grass (barnyard grass [8]): 4 (Herbicidal rate of 70% or more and less than 90%) | Herbicidal effect on C: oval-leafed pondweed (grade 0-5) (oval-leafed pondweed): 0 (Herbicidal rate of 5% or less (almost no effect)) | herbicidal effect on H: barnyard grass (barnyard grass [9]): 5 (Herbicidal rate of 90% or more (almost completely withered)) | herbicidal effect on E: rice flat sedge (rice flat sedge): 5 (Herbicidal rate of 90% or more (almost completely withered)) | herbicidal effect, M: velvetleaf (velvetleaf [10]): 3 (Herbicidal rate of 40% or more and less than 70%) | herbicidal effect on D: Chinese sprangletop (Chinese sprangletop): 4 (Herbicidal rate of 70% or more and less than 90%)

CCCC(=O)Oc1c(C)nn(C)c(=O)c1-c1c(-c2cnccc2Cl)sc2ccc(F)cc12 [2-386]
herbicidal effect, G: green foxtail (green foxtail [1]): 3 (Herbicidal rate of 40% or more and less than 70%) | herbicidal effect, R: persian speedwell (persian speedwell [2]): 5 (Herbicidal rate of 90% or more (almost completely withered)) | herbicidal effect, K: Italian ryegrass (Italian ryegrass [3]): 4 (Herbicidal rate of 70% or more and less than 90%) | herbicidal effect, N: redroot pigweed (redroot pigweed): 4 (Herbicidal rate of 70% or more and less than 90%) | Herbicidal effect on B: Japanese bulrush (grade 0-5) (Japanese bulrush): 0 (Herbicidal rate of 5% or less (almost no effect)) | herbicidal effect, O: lambsquarters (lambsquarters [4]): 4 (Herbicidal rate of 70% or more and less than 90%) | herbicidal effect, P: chickweed (chickweed): 5 (Herbicidal rate of 90% or more (almost completely withered)) | Herbicidal effect on A: late watergrass (grade 0-5) (late watergrass): 2 (Herbicidal rate of 20% or more and less than 40%) | herbicidal effect, L: windgrass (windgrass): 2 (Herbicidal rate of 20% or more and less than 40%) | herbicidal effect, J: blackgrass (blackgrass [5]): 0 (Herbicidal rate of 5% or less (almost no effect)) | herbicidal effect, F: southern crabgrass (southern crabgrass [6]): 4 (Herbicidal rate of 70% or more and less than 90%) | herbicidal effect, I: wild oat (wild oat [7]): 1 (Herbicidal rate of 5% or more and less than 20%) | herbicidal effect, H: barnyard grass (barnyard grass [8]): 4 (Herbicidal rate of 70% or more and less than 90%) | Herbicidal effect on C: oval-leafed pondweed (grade 0-5) (oval-leafed pondweed): 0 (Herbicidal rate of 5% or less (almost no effect)) | herbicidal effect on H: barnyard grass (barnyard grass [9]): 5 (Herbicidal rate of 90% or more (almost completely withered)) | herbicidal effect on E: rice flat sedge (rice flat sedge): 3 (Herbicidal rate of 40% or more and less than 70%) | herbicidal effect, M: velvetleaf (velvetleaf [10]): 1 (Herbicidal rate of 5% or more and less than 20%) | herbicidal effect on D: Chinese sprangletop (Chinese sprangletop): 4 (Herbicidal rate of 70% or more and less than 90%)

CCOc1cc(F)ccc1-c1sc2cc(OC)c(Cl)cc2c1-c1c(O)c(C)nn(C)c1=O [5-077]
herbicidal effect on wild oat (I) (wild oat [11]): 3 (Herbicidal rate of 40% or more and less than 70%) | G: green foxtail, herbicidal effect grade (green foxtail [1]): 0 (Herbicidal rate of 5% or less (almost no effect)) | R: persian speedwell, herbicidal effect grade (persian speedwell [2]): 0 (Herbicidal rate of 5% or less (almost no effect)) | K: Italian ryegrass, herbicidal effect grade (Italian ryegrass [3]): 0 (Herbicidal rate of 5% or less (almost no effect)) | N: redroot pigweed, herbicidal effect grade (redroot pigweed): 3 (Herbicidal rate of 40% or more and less than 70%) | herbicidal effect on barnyard grass (H) (barnyard grass [12]): 5 (Herbicidal rate of 90% or more (almost completely withered)) | Herbicidal effect, B: Japanese bulrush (Japanese bulrush; [20]): 0 (Herbicidal rate of 5% or less (almost no effect)) | O: lambsquarters, herbicidal effect grade (lambsquarters [4]): 3 (Herbicidal rate of 40% or more and less than 70%) | herbicidal effect on southern crabgrass (F) (southern crabgrass [13]): 5 (Herbicidal rate of 90% or more (almost completely withered)) | P: chickweed, herbicidal effect grade (chickweed): 0 (Herbicidal rate of 5% or less (almost no effect)) | Herbicidal effect, A: late watergrass (late watergrass; [20]): 2 (Herbicidal rate of 20% or more and less than 40%) | L: windgrass, herbicidal effect grade (windgrass): 0 (Herbicidal rate of 5% or less (almost no effect)) | J: blackgrass, herbicidal effect grade (blackgrass [5]): 0 (Herbicidal rate of 5% or less (almost no effect)) | F: southern crabgrass, herbicidal effect grade (southern crabgrass [6]): 2 (Herbicidal rate of 20% or more and less than 40%) | herbicidal effect on blackgrass (J) (blackgrass [14]): 3 (Herbicidal rate of 40% or more and less than 70%) | I: wild oat, herbicidal effect grade (wild oat [7]): 0 (Herbicidal rate of 5% or less (almost no effect)) | H: barnyard grass, herbicidal effect grade (barnyard grass [8]): 0 (Herbicidal rate of 5% or less (almost no effect)) | Herbicidal effect, C: oval-leafed pondweed (oval-leafed pondweed; [20]): 4 (Herbicidal rate of 70% or more and less than 90%) | herbicidal effect on barnyard grass (H) (barnyard grass [9]; 320 g/ha): 5 (Herbicidal rate of 90% or more (almost completely withered)) | herbicidal effect on velvetleaf (M) (velvetleaf [15]): 3 (Herbicidal rate of 40% or more and less than 70%) | herbicidal effect on rice flat sedge (E) (rice flat sedge; 320 g/ha): 4 (Herbicidal rate of 70% or more and less than 90%) | herbicidal effect on Italian ryegrass (K) (Italian ryegrass [16]): 0 (Herbicidal rate of 5% or less (almost no effect)) | herbicidal effect on lambsquarters (O) (lambsquarters [17]): 5 (Herbicidal rate of 90% or more (almost completely withered)) | M: velvetleaf, herbicidal effect grade (velvetleaf [10]): 0 (Herbicidal rate of 5% or less (almost no effect)) | herbicidal effect on persian speedwell (R) (persian speedwell [18]): 4 (Herbicidal rate of 70% or more and less than 90%) | herbicidal effect on green foxtail (G) (green foxtail [19]): 5 (Herbicidal rate of 90% or more (almost completely withered)) | herbicidal effect on Chinese sprangletop (D) (Chinese sprangletop; 320 g/ha): 2 (Herbicidal rate of 20% or more and less than 40%)
